Measured values from paper PMC10952195, “A single coiled‐coil domain mutation in hIKCa channel subunits disrupts preferential formation of heteromeric hSK1:hIKCa channels” (The European Journal of Neuroscience, 2023).
Entries after “also recorded” stand apart in the source; their conditions may differ. Where two headings read alike, the source gives them in different places. Ends that are not written are not given here.

Experiments:
[1] = system: hSK1 channel; assay: Ca2+ activation of ramp currents, inside-out macropatches, homomeric hSK1; assay type: cell-based, human
Description: (§1) TsA201 cells were maintained in culture at 37°C and 5% CO2, being grown in culture flasks with Dulbecco's Modified Eagle Medium (DMEM) supplemented with foetal bovine serum (10%) and penicillin and streptomycin (1%). Cells were passaged at ~80% confluence. The cDNA of KCa channel subunits and one encoding expression of enhanced green fluorescent protein (eGFP) (using pcDNA3.1 or equivalent vectors) were transfected into tsA201 cells using polyethylenimine (PEI) (Merck/Sigma, UK) at a concentration of 0.2 mg/mL (Higham et al., [2019]). Cells were used 48 h after transfection. All mutations were carried out using QuikChange II XL (Stratagene).
(§2) Sensitivity of expressed channels to Ca^2+ was assessed using inside‐out macropatches excised from eGFP‐positive cells, using electrodes of resistance 1–3 MΩ. A range of free Ca^2+ concentrations was used, from 30 nM to 3 μM in half log10 increments. We used external solution to bath inside‐out patches, with the free Ca^2+ concentration calculated to maintain free Mg^2+ at 1 mM. Solutions were designed using REACT, with pH adjusted to 7.4 and osmolarity between 280 and 310 mOsm.

[2] = target: T1, hIKCa channel (Homo sapiens, UniProt O15554); assay: Ca2+ activation of ramp currents, inside-out macropatches, homomeric hIKCa; assay type: cell-based
T1 construct: expressed in transfected cells; host or cells: tsA201 cells
Description: as §1, §2

[3] = target: T2, heteromeric hSK1:hIKCa channel (Homo sapiens, UniProt O15554+Q92952); assay: Ca2+ activation of ramp currents, inside-out macropatches, heteromeric hSK1:hIKCa; assay type: cell-based
T2 construct: expressed in transfected cells; host or cells: tsA201 cells
Description: as §1, §2

[4] = system: SK channels native to CA1 hippocampal neurons; set-up: method as in Hirschberg et al., 1999; conditions: ref Hirschberg et al., 1999; read-out: EC50 for activation of SK channels native to CA1 hippocampal neurons; cited from earlier work
[5] = target: T3, hIKCa (WT) channel (Homo sapiens, UniProt O15554); assay: Outside-out patch current inhibition, homomeric wildtype hIKCa expressed in tsA201 cells; assay type: cell-based
T3 construct: expressed in transfected cells; host or cells: tsA201 cells
Description: as §1
(§3) Outside‐out patches were excised from eGFP‐positive cells, pulled from thick‐walled (1.5 mm OD × 0.86 mm ID) borosilicate glass capillaries (Harvard Apparatus, UK), fire‐polished and filled with internal solution containing in mM: 97 K aspartate, 20 KCl, 1.5 Na2ATP, 10 EGTA, 9.65 CaCl2 (1 μM free Ca^2+), 10 HEPES Na, 2.5 MgCl2 (pH 7.4 and osmolarity between 280 and 310 mOsm). […] Free Ca^2+ concentrations were calculated using REACT (University of Strathclyde). […] Current was measured using an Axopatch 200A amplifier, low‐pass filtered (cut off 1 kHz, Bessel, Frequency Devices) and acquired at 10 kHz (Pulse, HEKA). […]

[6] = target: T2, heteromeric hSK1:hIKCa channel; assay: Outside-out patch current inhibition, heteromeric wildtype hSK1:hIKCa expressed in tsA201 cells; assay type: cell-based; conditions: for extent of inhibition of heteromeric hSK1:hIKCa current: concentration-inhibition relationship
Description: as §1
(§4) Outside‐out patches were excised from eGFP‐positive cells, pulled from thick‐walled (1.5 mm OD × 0.86 mm ID) borosilicate glass capillaries (Harvard Apparatus, UK), fire‐polished and filled with internal solution containing in mM: 97 K aspartate, 20 KCl, 1.5 Na2ATP, 10 EGTA, 9.65 CaCl2 (1 μM free Ca^2+), 10 HEPES Na, 2.5 MgCl2 (pH 7.4 and osmolarity between 280 and 310 mOsm). Cells were bathed in, and patches excised into, an external solution containing in mM: 97 K Aspartate, 30 KCl, 10 HEPES Na^+, 6.19 CaCl2 (1 μM free Ca^2+), 1.44 MgCl2 (pH 7.4, 280–310 mOsm). Free Ca^2+ concentrations were calculated using REACT (University of Strathclyde). […] Current was measured using an Axopatch 200A amplifier, low‐pass filtered (cut off 1 kHz, Bessel, Frequency Devices) and acquired at 10 kHz (Pulse, HEKA). All recordings were made at room temperature. Apamin (Sigma‐Aldrich, UK), 6,12,19,20,25,26‐hexahydro‐5,27:13,18:21,24‐trietheno‐11,7‐metheno‐7H‐dibenzo [b,n] […] UCL1684 was dissolved at a stock concentration of 100 μM in DMSO, and aliquots were stored at −20°C. Finally, apamin was dissolved in distilled water at a stock concentration of 100 μM, and aliquots were stored at −20°C. All compounds were defrosted on the day of recording, with aliquots only thawed once, and desired concentrations were prepared by dilution in external solution.
(§5) Biphasic concentration–inhibition relationships were fitted using the following equation: I/Icontrol=Amin+Afrac−Amin/1+10^LogIC50,a−X×nH,a +Amax−Amin/1+10^LogIC50,b−X×nH,b where A frac is current amplitude at the maximum of the high‐sensitivity component I frac /I cont , IC 50,a is the IC50 of the high‐sensitivity component, n H,a is the Hill coefficient of the high‐sensitivity component, IC 50,b is the IC50 of the low‐sensitivity component, and n H,b is the Hill coefficient of the low‐sensitivity component. […] Statistical significance was determined using appropriate tests that are stated in the figure legend.

[7] = system: hSK1[S348T + A371V] channel; assay: Outside-out patch current inhibition, homomeric pore mutant hSK1[S348T + A371V]; assay type: cell-based, human
Description: as §1, §3

[8] = target: hSK1[S348T + A371V]:hIKCa heteromeric channel (Homo sapiens, UniProt O15554+Q92952, A355V/S330T); assay: Outside-out patch current inhibition, heteromeric hSK1[S348T + A371V]:hIKCa; assay type: cell-based
Description: as §1, §3

[9] = target: T4, hIKCa[H389E] channel (Homo sapiens, UniProt O15554, H389E); assay: Outside-out patch current inhibition, homomeric hIKCa[H389E]; assay type: cell-based; conditions: TRAM-34 10 μM
T4 construct: expressed in transfected cells; host or cells: tsA201 cells
Description: as §1, §3

[10] = target: hSK1:hIKCa[H389E] channels (Homo sapiens, UniProt O15554+Q92952, H389E); assay: Outside-out patch current inhibition, cells co-expressing hSK1 and hIKCa[H389E]; assay type: cell-based
Description: as §1, §4, §5

[11] = target: T2, heteromeric hSK1:hIKCa channel; conditions: ref Higham et al., 2019, Church et al.; cited from earlier work
[12] = system: hSK1 channel; set-up: method as in Higham et al., 2019; conditions: ref Higham et al., 2019; cited from earlier work
[13] = system: slow AHP of hippocampal neurons; conditions: ref King et al., 2015, Shah & Haylett, 2000, Church et al., 2019, Higham et al.; cited from earlier work
[14] = system: hSK1:hIKCa[H389E] channels; assay: Outside-out patch current inhibition, cells co-expressing hSK1 and hIKCa[H389E]; assay type: cell-based, human; conditions: biphasic fit, hSK1:hIKCa[H389E]-mediated current
Description: as §1, §4, §5

[15] = system: hSK1 channel; assay: Outside-out patch current inhibition, homomeric hSK1; assay type: cell-based, human
Description: as §1
Outside‐out patches were excised from eGFP‐positive cells, pulled from thick‐walled (1.5 mm OD × 0.86 mm ID) borosilicate glass capillaries (Harvard Apparatus, UK), fire‐polished and filled with internal solution containing in mM: 97 K aspartate, 20 KCl, 1.5 Na2ATP, 10 EGTA, 9.65 CaCl2 (1 μM free Ca^2+), 10 HEPES Na, 2.5 MgCl2 (pH 7.4 and osmolarity between 280 and 310 mOsm). Cells were bathed in, and patches excised into, an external solution containing in mM: 97 K Aspartate, 30 KCl, 10 HEPES Na^+, 6.19 CaCl2 (1 μM free Ca^2+), 1.44 MgCl2 (pH 7.4, 280–310 mOsm). Free Ca^2+ concentrations were calculated using REACT (University of Strathclyde). […] Current was measured using an Axopatch 200A amplifier, low‐pass filtered (cut off 1 kHz, Bessel, Frequency Devices) and acquired at 10 kHz (Pulse, HEKA). […]
as §5

[16] = concentration-inhibition relationship

T2 sequence (O15554 whole entry): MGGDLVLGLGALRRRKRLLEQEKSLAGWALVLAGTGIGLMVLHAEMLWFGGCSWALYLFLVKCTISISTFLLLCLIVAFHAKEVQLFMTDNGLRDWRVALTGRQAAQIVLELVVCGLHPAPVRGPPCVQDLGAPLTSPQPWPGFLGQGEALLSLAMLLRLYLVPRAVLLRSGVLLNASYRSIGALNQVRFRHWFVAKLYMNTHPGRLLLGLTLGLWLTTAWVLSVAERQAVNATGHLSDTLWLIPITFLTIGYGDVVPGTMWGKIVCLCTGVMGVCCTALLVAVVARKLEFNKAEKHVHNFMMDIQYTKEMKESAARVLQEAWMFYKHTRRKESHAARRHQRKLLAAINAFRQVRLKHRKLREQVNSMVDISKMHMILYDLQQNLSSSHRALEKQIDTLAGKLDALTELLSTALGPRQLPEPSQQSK
T2 sequence (Q92952 other isoform, or with tags, fused parts or gaps): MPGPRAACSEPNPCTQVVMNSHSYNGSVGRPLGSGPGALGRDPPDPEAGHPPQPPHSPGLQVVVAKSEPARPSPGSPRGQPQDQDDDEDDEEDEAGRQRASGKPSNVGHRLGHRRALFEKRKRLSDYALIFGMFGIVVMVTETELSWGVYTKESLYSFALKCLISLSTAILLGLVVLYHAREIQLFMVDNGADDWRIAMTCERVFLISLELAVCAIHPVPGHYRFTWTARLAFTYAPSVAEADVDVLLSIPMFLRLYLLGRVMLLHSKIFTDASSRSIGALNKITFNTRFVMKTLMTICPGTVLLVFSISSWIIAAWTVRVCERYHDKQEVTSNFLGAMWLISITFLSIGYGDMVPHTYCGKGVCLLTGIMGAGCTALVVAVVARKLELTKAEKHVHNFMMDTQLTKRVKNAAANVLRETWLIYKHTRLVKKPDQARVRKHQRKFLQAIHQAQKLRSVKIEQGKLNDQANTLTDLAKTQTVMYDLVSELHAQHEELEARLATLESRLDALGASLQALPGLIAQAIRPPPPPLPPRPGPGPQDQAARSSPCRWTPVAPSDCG
T1 sequence (O15554 whole entry): as the sequence (O15554 whole entry) above
hSK1:hIKCa[H389E] channels (Homo sapiens, UniProt O15554+Q92952, H389E), sequence (O15554 whole entry H389E): as the sequence (O15554 whole entry) above, with H389E counted along it
hSK1:hIKCa[H389E] channels (Homo sapiens, UniProt O15554+Q92952, H389E), sequence (Q92952 whole entry): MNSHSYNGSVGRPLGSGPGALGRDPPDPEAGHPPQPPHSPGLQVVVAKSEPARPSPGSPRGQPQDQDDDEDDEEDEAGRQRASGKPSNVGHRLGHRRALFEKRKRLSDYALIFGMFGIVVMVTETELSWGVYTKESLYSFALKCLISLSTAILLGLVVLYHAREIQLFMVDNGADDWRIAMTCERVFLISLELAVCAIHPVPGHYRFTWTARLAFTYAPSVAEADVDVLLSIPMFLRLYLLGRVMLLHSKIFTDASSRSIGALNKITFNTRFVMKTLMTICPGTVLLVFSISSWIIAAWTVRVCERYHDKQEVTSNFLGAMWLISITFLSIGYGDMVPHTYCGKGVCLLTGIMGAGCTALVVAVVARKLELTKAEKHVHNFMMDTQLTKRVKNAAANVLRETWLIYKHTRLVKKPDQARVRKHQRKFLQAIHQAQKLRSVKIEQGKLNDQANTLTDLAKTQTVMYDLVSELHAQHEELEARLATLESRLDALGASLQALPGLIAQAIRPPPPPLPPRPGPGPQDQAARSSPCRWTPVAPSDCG
T3 sequence (O15554 whole entry): as the sequence (O15554 whole entry) above
hSK1[S348T + A371V]:hIKCa heteromeric channel, sequence (O15554 whole entry): as above
hSK1[S348T + A371V]:hIKCa heteromeric channel, sequence (Q92952 whole entry S330T/A355V): as the sequence (Q92952 whole entry) above, with S330T, A355V counted along it
T4 sequence (O15554 whole entry H389E): as the sequence (O15554 whole entry) above, with H389E counted along it

[Ca+2] [Ca^2+]
activity of homomeric hSK1 channels at 100 nM Ca2+ ([1]; 100 nM Ca2+): inactive
nH for activation of homomeric hSK1-mediated current ([1]; inside-out patches): 5.26 ± 0.82
EC50 ([1]; inside-out patches, tsA201 cells, read-out: EC50 for activation of homomeric hSK1-mediated current): 531 ± 78 nM
activity of homomeric hIKCa channels at 100 nM Ca2+ ([2]; 100 nM Ca2+): 10%
nH for activation of homomeric hIKCa-mediated ramp currents ([2]; inside-out patches): 4.10 ± 0.57
EC50 ([2]; inside-out patches, tsA201 cells, read-out: EC50 for activation of homomeric hIKCa-mediated ramp currents): 409 ± 15.3 nM
activity of heteromeric hSK1:hIKCa channels at 100 nM Ca2+ ([3]; 100 nM Ca2+): inactive
nH for activation of heteromeric hSK1:hIKCa-mediated ramp currents ([3]; inside-out patches): 3.93 ± 0.29
EC50 ([3]; inside-out patches, tsA201 cells, read-out: EC50 for activation of heteromeric hSK1:hIKCa-mediated ramp currents): 613 ± 27.6 nM
EC50 [4]: 560 nM

Clc1ccccc1C(c1ccccc1)(c1ccccc1)n1cccn1 [TRAM‐34, 1‐[(2‐chlorophenyl)diphenylmethyl]‐1H‐pyrazole]
extent of inhibition of homomeric hIKCa-mediated current [5, 16]: fully inhibited
inhibition at 10 µM ([5]; tsA201, TRAM-34 10 μM, read-out: inhibition of hIKCa (WT)-mediated current): 87 ± 2.6%
extent of inhibition of heteromeric hSK1:hIKCa current [6]: sub‐maximal inhibition
extent of block of hSK1[S348T + A371V]-mediated current ([7]; TRAM-34 10 μM): fully blocked
extent of inhibition of hSK1[S348T + A371V]:hIKCa current ([8]; TRAM-34 10 μM): fully sensitive
block of hIKCa[H389E]-mediated current [9]: 83.7 ± 2.0%
extent of inhibition of hSK1:hIKCa[H389E] current [10, 16]: only partially inhibited
sensitivity of hSK1:hIKCa channel current [11]: sensitive
effect on wildtype hSK1-mediated current [12]: insensitive; also recorded: does not affect
sensitivity of the slow AHP [13]: sensitive

[Br-].[Br-].c1cc2cc(c1)C[n+]1ccc(c3ccccc31)NCc1ccc(cc1)CNc1cc[n+](c3ccccc13)C2 [UCL1684, 6,12,19,20,25,26‐hexahydro‐5,27:13,18:21,24‐trietheno‐11,7‐metheno‐7H‐dibenzo [b,n] [1,5,12,16]tetraazacyclotricosine‐5,13‐diium dibromide]
extent of inhibition of heteromeric hSK1:hIKCa current [6]: sub‐maximally inhibited
IC50 ([6]; outside-out patches, tsA201 cells, 1 μM free Ca2+, sub-maximal inhibition, read-out: IC50 for inhibition of heteromeric hSK1:hIKCa (WT) current): 236 ± 82 nM
maximal inhibition of hSK1:hIKCa[H389E]-mediated current ([10]; two component concentration-inhibition curve): 50.9 ± 12.5%
nH(a) of the high-sensitivity component [14]: 0.910 ± 0.02
nH(b) of the low-sensitivity component [14]: 0.930 ± 0.1
IC50 ([14]; read-out: IC50(a) of the high-sensitivity component): 0.511 ± 0.0002 nM
IC50 ([14]; read-out: IC50(b) of the low-sensitivity component): 301 ± 84.6 nM
extent of inhibition of homomeric hSK1-mediated current [15, 16]: maximally inhibited
difference in sensitivity between homomeric hSK1-mediated and heteromeric hSK1:hIKCa-mediated current ([15]; hSK1 versus hSK1:hIKCa): < 200 fold
IC50 ([15]; outside-out patches, tsA201 cells, maximal inhibition, read-out: IC50 for inhibition of homomeric hSK1-mediated current): 0.783 ± 0.38 nM

apamin: SK channel inhibitor; negative allosteric inhibitor for SK1–3 channels (CNCKAPETALCARRCQQH; not fully specified (C-terminus, bridges); cysteine pairing not given here; UniProt P01500 28-45, looked up)
effect on current from cells co-expressing wildtype hSK1 and hIKCa ([6]; apamin 100 nM): had no effect
extent of inhibition of hSK1[S348T + A371V] current ([7]; apamin 100 nM): completely inhibited
sensitivity of hSK1[S348T + A371V]:hIKCa current ([8]; apamin 100 nM): insensitive
reduction of current amplitude, cells co-expressing hSK1 and hIKCa[H389E] ([10]; apamin 100 nM): 17.3 ± 1.8%
sensitivity of hSK1:hIKCa channel current [11]: insensitive
sensitivity of the slow AHP [13]: insensitive

charybdotoxin
sensitivity of hSK1:hIKCa channel current [11]: sensitive
sensitivity of the slow AHP [13]: sensitive
